Test results: patent US20080318943A1, “Compounds and Uses Thereof - 848” (ASTRAZENECA AB, priority 2007, published 2008)

Legend:
[1] = EEG protocol (Method JJ), spontaneous EEG in behaving rats; type: in vivo, Sprague Dawley rats
From the text: In another embodiment, certain compounds of the invention may be useful in treating schizophrenia. In a particular embodiment, certain compounds of the invention may be useful in treating cognitive disorders associated with schizophrenia. The existing non-selective GABAergic agents are generally not suitable for treating information/cognitive processing deficits in schizophrenia due to the unacceptable competing side effects, such as overt sedation and memory impairment. Certain compounds of the invention are capable of selective modification of function at the specific GABAergic synapses affected by the schizophrenic disease state. Therefore, these certain compounds of the invention acting selectively at GABAA α2 subunits may be used for treating cognitive deficits in schizophrenia.
Subjects: Sprague Dawley rats weighing 300-400 g at time of surgery are used as subjects. Rats are maintained>1 week in AstraZeneca vivarium prior to surgical procedures. Rats are housed singly, maintained on a 12:12 light:dark cycle, and fed and watered ad lib for a period of>14 days following surgery. […]
During compound testing sessions, animals are initially allowed to re-acclimate to the operant chamber for 10-20′ minutes prior to a 30-minute baseline session in which performance and EEG are continuously monitored. […]

GABAA receptor α2β3γ2 = molecular target: T1, GABAA receptor α2β3γ2 (Homo sapiens, UniProt P18507+P47869); experiment: Two-electrode voltage-clamp potentiation of GABA EC10 current in Xenopus oocytes, GABAA2; type: cell-based; conditions: percentage potentiation of GABA EC10 current divided by that of diazepam
T1 construct: expressed in transfected cells; host or cells: Xenopus laevis oocytes injected with cRNA
How it was run: (§1)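 Human GABAA receptors expressed in Xenopus oocytes by cRNA injection (α:β:γ molar ratio ~1:1:10 for α1β2γ2, 1:1:1 for α2β3γ2), recorded 2-10 days later by two-electrode voltage clamp at −60 mV in ND-96, pH 7.5. Modulator preapplied 30 s before GABA at per-oocyte EC10. Peak-current percent potentiation over GABA alone, normalised to diazepam.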

GABAA receptor α1β2γ2 = molecular target: T2, GABAA receptor α1β2γ2 (Homo sapiens, UniProt P14867+P18507); experiment: Two-electrode voltage-clamp potentiation of GABA EC10 current in Xenopus oocytes, GABAA1; type: cell-based; conditions: percentage potentiation of GABA EC10 current divided by that of diazepam
T2 construct: expressed in transfected cells; host or cells: Xenopus laevis oocytes injected with cRNA
How it was run: as §1

[2] = molecular target: T3, GABAA2 receptors (α2, β3, γ2 receptor subunits transfected into Sf9 cells) (Homo sapiens, UniProt P18507+P47869); experiment: GABAA2 Binding Method ([3H]-Flunitrazepam displacement); conditions: [3H]-Flunitrazepam ~2 nM, α2β3γ2 Sf9 membranes, 1 hr at 4° C.
T3 construct: host or cells: Sf9 cells (membranes)
How it was run: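 Displacement of [3H]-flunitrazepam (~2 nM in assay) from recombinant human α2β3γ2 receptors in Sf9 membranes; 1 h incubation at 4 °C, harvest by filtration. Values reported as percent of control, IC50 and Ki.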

[3] = listed as 9-Amino-2-cyclobutyl-5-((M)-2-fluoro-6-methoxyphenyl)-2,3-dihydro-pyrrolo[3,4-b]

T2 sequence (P14867 28-456): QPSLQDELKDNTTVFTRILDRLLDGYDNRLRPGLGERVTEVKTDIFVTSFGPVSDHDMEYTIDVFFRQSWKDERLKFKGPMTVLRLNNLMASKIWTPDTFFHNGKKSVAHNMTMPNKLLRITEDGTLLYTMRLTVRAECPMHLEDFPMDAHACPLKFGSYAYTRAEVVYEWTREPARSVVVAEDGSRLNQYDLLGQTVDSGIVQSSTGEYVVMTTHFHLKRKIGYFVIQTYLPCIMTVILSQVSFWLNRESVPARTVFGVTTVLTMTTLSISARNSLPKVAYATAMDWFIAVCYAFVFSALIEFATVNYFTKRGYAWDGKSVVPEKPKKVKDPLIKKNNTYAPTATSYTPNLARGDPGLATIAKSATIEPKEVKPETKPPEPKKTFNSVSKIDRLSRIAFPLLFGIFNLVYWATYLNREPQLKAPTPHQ
T2 sequence (P47870 25-512 partner limits assumed): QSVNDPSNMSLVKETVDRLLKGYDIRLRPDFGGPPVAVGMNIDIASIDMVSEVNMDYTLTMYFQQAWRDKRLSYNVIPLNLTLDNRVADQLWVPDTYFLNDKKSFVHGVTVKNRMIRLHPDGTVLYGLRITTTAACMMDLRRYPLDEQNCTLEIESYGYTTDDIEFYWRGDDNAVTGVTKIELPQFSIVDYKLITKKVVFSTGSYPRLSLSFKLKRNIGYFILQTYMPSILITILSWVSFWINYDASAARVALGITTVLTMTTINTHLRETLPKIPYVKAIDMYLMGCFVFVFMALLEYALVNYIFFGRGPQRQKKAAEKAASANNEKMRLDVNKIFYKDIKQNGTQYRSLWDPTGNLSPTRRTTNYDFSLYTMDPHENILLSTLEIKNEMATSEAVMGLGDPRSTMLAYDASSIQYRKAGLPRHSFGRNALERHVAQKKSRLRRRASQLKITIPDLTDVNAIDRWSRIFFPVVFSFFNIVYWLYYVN
T2 sequence (P18507 40-475): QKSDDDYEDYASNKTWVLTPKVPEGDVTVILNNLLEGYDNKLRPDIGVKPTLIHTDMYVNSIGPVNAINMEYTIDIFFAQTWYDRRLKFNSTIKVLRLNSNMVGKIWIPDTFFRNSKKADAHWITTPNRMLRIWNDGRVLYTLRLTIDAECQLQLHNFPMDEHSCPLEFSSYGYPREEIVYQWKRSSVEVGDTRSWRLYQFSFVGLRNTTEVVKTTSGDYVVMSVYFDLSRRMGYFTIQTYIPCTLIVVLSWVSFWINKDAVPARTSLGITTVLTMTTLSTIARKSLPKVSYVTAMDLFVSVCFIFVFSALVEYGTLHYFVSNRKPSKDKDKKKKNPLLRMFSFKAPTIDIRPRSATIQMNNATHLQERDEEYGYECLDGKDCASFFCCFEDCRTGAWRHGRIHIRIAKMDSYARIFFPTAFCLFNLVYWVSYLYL
T1 sequence (P47869 29-451): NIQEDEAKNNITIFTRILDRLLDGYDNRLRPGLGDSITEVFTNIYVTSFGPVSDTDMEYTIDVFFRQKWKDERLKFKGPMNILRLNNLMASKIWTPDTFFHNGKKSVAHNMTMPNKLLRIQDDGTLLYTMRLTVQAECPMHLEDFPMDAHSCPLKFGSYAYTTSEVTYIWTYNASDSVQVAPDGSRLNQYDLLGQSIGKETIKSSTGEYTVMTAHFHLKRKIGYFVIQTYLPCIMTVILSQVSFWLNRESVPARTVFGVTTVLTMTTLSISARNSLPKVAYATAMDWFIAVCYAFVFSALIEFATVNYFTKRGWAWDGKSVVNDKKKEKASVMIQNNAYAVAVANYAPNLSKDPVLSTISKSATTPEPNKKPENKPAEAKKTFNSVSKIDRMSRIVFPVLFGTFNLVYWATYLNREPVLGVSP
T1 sequence (P28472 26-473 partner): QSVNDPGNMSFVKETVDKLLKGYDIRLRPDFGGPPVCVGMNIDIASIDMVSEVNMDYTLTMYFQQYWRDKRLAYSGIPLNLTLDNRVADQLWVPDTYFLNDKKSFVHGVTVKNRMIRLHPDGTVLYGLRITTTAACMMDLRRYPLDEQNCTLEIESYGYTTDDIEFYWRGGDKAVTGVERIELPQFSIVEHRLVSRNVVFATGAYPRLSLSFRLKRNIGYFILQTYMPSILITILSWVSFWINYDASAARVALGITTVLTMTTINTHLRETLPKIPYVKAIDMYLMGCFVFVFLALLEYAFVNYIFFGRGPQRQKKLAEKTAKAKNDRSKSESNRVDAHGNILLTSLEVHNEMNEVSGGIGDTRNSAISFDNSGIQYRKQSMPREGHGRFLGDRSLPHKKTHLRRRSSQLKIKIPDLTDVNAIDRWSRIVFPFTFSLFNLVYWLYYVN
T1 sequence (P18507 40-475): as the sequence (P18507 40-475) above
T3 sequence (P47869 29-451): as the sequence (P47869 29-451) above
T3 sequence (P28472 26-473 partner): as the sequence (P28472 26-473 partner) above
T3 sequence (P18507 40-475): as the sequence (P18507 40-475) above

Cc1ccc(-c2nc3ccc(C)cn3c2CC(=O)N(C)C)cc1 [zolpidem]
spontaneous EEG at gamma frequencies [1]: no significant increase

O=C1Nc2ccc(Cl)cc2C(c2ccccc2Cl)=NC1O (centres unmarked) [Lorazepam]
spontaneous EEG across a range of oscillation frequencies [1]: broad changes

CCCN1Cc2nc3c(-c4cccc(C)c4C)cccc3c(N)c2C1=O [Example 6, 9-Amino-5-(2,3-dimethylphenyl)-2-propyl-2,3-dihydropyrrolo[3,4-b]quinolin-1-one]
Relative Potentiation for GABAA2 (GABAA receptor α2β3γ2): 0.22
Relative Potentiation for GABAA1 (GABAA receptor α1β2γ2): 0.13
Ki [2]: 17.3 nM

Nc1c2c(nc3c(-c4ccncc4)cccc13)CN(C1CCC1)C2=O [9-Amino-2-cyclobutyl-5-pyridin-4-yl-2,3-dihydropyrrolo[3,4-b]quinolin-1-one]
Relative Potentiation for GABAA2 (GABAA receptor α2β3γ2): 0.17
Relative Potentiation for GABAA1 (GABAA receptor α1β2γ2): 0.079
Ki [2]: 1.35 nM

COc1cc(-c2cccc3c(N)c4c(nc23)CN(C2CCC2)C4=O)c(C#N)cn1 [Example 96, 4-(9-Amino-2-cyclobutyl-1-oxo-2,3-dihydro-1H-pyrrolo[3,4-b]quinolin-5-yl)-6-methoxyniconitrile]
Relative Potentiation for GABAA2 (GABAA receptor α2β3γ2): 0.36
Relative Potentiation for GABAA1 (GABAA receptor α1β2γ2): 0.066
Ki [2]: 15.3 nM

Cc1ccc(-c2cccc3c(N)c4c(nc23)CN(C2CC2)C4=O)cn1 [9-Amino-2-cyclopropyl-5-(6-methyl-pyridin-3-yl)-2,3-dihydropyrrolo[3,4-b]quinolin-1-one]
Relative Potentiation for GABAA2 (GABAA receptor α2β3γ2): 0.1
Relative Potentiation for GABAA1 (GABAA receptor α1β2γ2): −0.11
Ki [2]: 29.9 nM

COc1cccc(F)c1-c1cccc2c(N)c3c(nc12)CN(C1CCC1)C3=O (single isomer, unassigned) [Example 130, 9-Amino-2-cyclobutyl-5-((M)-2-fluoro-6-methoxyphenyl)-2,3-dihydropyrrolo[3,4-b]quinolin-1-one]
Relative Potentiation for GABAA2 (GABAA receptor α2β3γ2; [3]): 0.23
Relative Potentiation for GABAA1 (GABAA receptor α1β2γ2; [3]): 0.002
Ki [2]: 9.21 nM

COc1cc(F)c(-c2cccc3c(N)c4c(nc23)CN(C2CCC2)C4=O)c(F)c1 [9-Amino-2-cyclobutyl-5-(2,6-difluoro-4-methoxyphenyl)-2,3-dihydropyrrolo[3,4-b]quinolin-1-one]
Relative Potentiation for GABAA2 (GABAA receptor α2β3γ2): 0.13
Relative Potentiation for GABAA1 (GABAA receptor α1β2γ2): −0.023
Ki [2]: 1.43 nM

Cc1nn(C)cc1-c1c(F)ccc2c(N)c3c(nc12)CN([C@@H]1CCOC1)C3=O [Example 97, 9-Amino-5-(1,3-dimethyl-1H-pyrazol-4-yl)-6-fluoro-2-(R)-tetrahydrofuran-3-yl-2,3-dihydropyrrolo[3,4-b]quinolin-1-one]
Relative Potentiation for GABAA2 (GABAA receptor α2β3γ2): 0.35
Relative Potentiation for GABAA1 (GABAA receptor α1β2γ2): 0.15
Ki [2]: 10.4 nM
